# Laboratory results reported in patent US10774052B2, “Heteroaryl compounds and uses thereof” (Celgene CAR LLC, priority 2013, dated 2020).
# “Also recorded” adds a separate entry of the source. Like-named read-outs stand apart in the source and are kept apart here.
# What was measured:
# Assay type in all cases: cell-based
# [1] = tested on: pFGFR4 in MDA-MB-453 cells; assay: FGFR4 signaling, pFGFR4 (MDA); Western blot (Method A), MSD (Method B), ELISA (Method C); settings: Homo sapiens, MDA-MB-453 cells
# [2] = tested on: pFGFR4 in MDA-MB-453 cells; assay: Washout experiment (duration of action on pFGFR4); settings: 1000-2000 nM for 1 hr, washed, up to 24 hr
# Description: The cells were allowed to settle down for 4 hrs and were then maintained in low-serum (0.1% FBS) media overnight.
# The following morning, the media was removed and the cells were treated with 1000-2000 nM of test compound in low-serum media for 1 hr. The cells were washed free of test compound (3×) with PBS (Invitrogen). One set of cells was immediately lysed as indicated above as the 0 hr time point. The remaining cells were incubated with the appropriate complete growth media (10-20% FBS) for 1, 2, 4, 8, 16 (in certain circumstances) and 24 hr. DMSO (0.5%) controls were collected at all time points.
# [3] = tested on: pFGFR4 in Huh7 cells; assay: FGFR4 signaling, pFGFR4 (Huh); MSD (Method B); settings: Homo sapiens
# [4] = Method B (MSD) for signaling EC50 determination
EC50 ([1]; Method A (Western blot) for signaling EC50 determination) [nM],"EC50 ([3]; Huh-7, Huh7 cells, read-out: Signaling EC50 (nM) pFGFR4 (Huh)) [nM]",Compound,duration of action against pFGFR4 signalling post washout [2],"EC50 [1, 4] [nM]","EC50 ([3]; Huh-7, read-out: Signaling EC50 (nM) pFGFR4 (Huh)) [nM]"
101 to 500,–,CCC(=O)Nc1cccc(CN2C(=O)N(c3c(Cl)c(OC)cc(OC)c3Cl)Cc3cnc(Nc4ccccc4NC(=O)CC)nc32)c1 [Compound I-234],does not show prolonged duration of action; also recorded: does not have PDA,–,–
–,–,C=CC(=O)NC1CCCCC1Nc1ncc2c(n1)N(Cc1cscn1)C(=O)N(c1c(Cl)c(OC)cc(OC)c1Cl)C2 (racemic) [Compound I-69],prolonged inhibition of autophosphorylation of FGFR4; also recorded: prolonged duration of action,< 100,101 to 500
–,< 100,C=CC(=O)Nc1ccccc1Nc1ncc2c(n1)N(Cc1cccc(NC(=O)CC)c1)C(=O)N(c1c(Cl)c(OC)cc(OC)c1Cl)C2 [Compound I-1],prolonged duration of action; also recorded: has PDA,< 100,–
